Measurements: patent US10449221B2, “Differentiation of stem cells into thyroid tissue” (TRUSTEES OF BOSTON UNIVERSITY, priority 2015, dated 2019)
Entries after “also recorded” stand apart in the source; their conditions may differ.

What was measured:
Xenopus embryos = assay: Xenopus whole embryo culture in pathway antagonists, in-situ hybridization for thyroid markers; type: in vivo; details: for induction of thyroid markers foxe1, nkx2-1, pax2 and hhex: inhibitor from stage NF13 until NF20, DMH-1 40 μM, SU5402 10 μM; for nkx2-1 induction in the developing thyroid primordium: inhibitor from stage NF13 through NF35, XAV939 50 μM, BMS493 10 μM
Experimental: Xenopus embryos were generated by in vitro fertilization and assayed by in situ hybridization or confocal immunostaining as previously described (Rankin et al., 2015). Small molecule inhibitors were dissolved in DMSO according to manufacturer's instructions and added to the embryo culture saline at the following working concentrations: 10 μM SU5402 (Tocris Bioscience), 40 μM DMH-1 (Sigma), 50 μM XAV939 (Sigma) and 10 μM BMS493 (Tocris Bioscience). Foregut explants were dissected from stage NF15 and treated with Dispase (BD Pharmingen) for 15 minutes and then the mesoderm was manually removed. Foregut endoderm was then cultured in 0.5× Modified Barth's Saline with 0.1% BSA with or without 500 ng/ml rhFGF2 and 50 ng/ml rhBMP4 (R&D systems).

pSmad1/5 = assay: Western blot of pSmad1/5 content in mouse foregut explants; type: cell-based; details: 24 hours of treatment, DMH-1 1.5 μM vs vehicle
Experimental: (§1) Whole foreguts were dissected from E8.5 embryos (6-8 somite pairs) in Hank's balanced salt solution (HBSS) then explanted onto 8 μm pore size Whatman Nucleopore Track-Etch Membranes (Millipore). Explants were cultured for 2-3 days in a base medium (BGJb medium (Gibco)+10% fetal bovine serum (FBS, Sigma) and 0.2 mg/ml ascorbic acid) containing either the BMPR inhibitor DMH-1 (1.5 μM, Tocris) or DMSO as a vehicle control. Whole mount immunostaining was performed using a modification of the method of Ahnfelt-Ronne et al. (Ahnfelt-Ronne et al., 2007). The primary antibodies used were: guinea pig anti-Nkx2-1 (Seven Hill Bioreagents; 1:500), rabbit anti-Pax8 (Protein Tech; 1:500) and rat anti-Ecad (R&D; 1:2000). After staining, samples were cleared with Murray's clear (2:1 benzyl benzoate: benzyl alcohol) and imaged using a Nikon A1Rsi inverted laser confocal microscope. Imaris software was used to analyze the images. DMH-1 treated and control explants were harvested and lysed in Laemmli buffer after 24 hours of treatment. Lysates were electrophoresed on a 10-20% Tris-glycine gel under reducing conditions, Western blotted, and probed with antibodies (Cell Signaling) to detect total Smad1/5 and pSmad 1/5 content; β-actin content served as a loading control.

mouse foregut explants = assay: Mouse E8.5 whole foregut explant culture, whole mount immunostaining for Nkx2-1 and Pax8; type: cell-based; details: 6-8 somite foreguts, 2-3 days, DMH-1 1.5 μM vs DMSO
Experimental: as §1

[1] = test system: Nkx2-1GFP+; Pax8tdTomato trace+ iPSC-derived cells; assay: Lineage specification of bifluorescent reporter iPSC line by day 14; type: cell-based, mouse; details: data not shown; for efficiency of lineage specification, percent yield of GFP+/tdTomato+ cells: factor withdrawn or removed from the Nkx2-1 induction media; for efficiency of lineage specification of Nkx2-1GFP+; Pax8tdTomato trace+ cells: Wnt inhibitor added to induction media
[2] = test system: ESC-derived definitive endoderm; assay: Nkx2-1+ endoderm induction from ESC-derived endoderm, specification media day 6-14, flow cytometry on day 14; type: cell-based, mouse; details: for Nkx2-1+ cell specification by day 14: factor(s) present in induction media day 6-14; for Nkx2-1+ endodermal induction efficiency: sequential withdrawal of each individual factor from the WFKBE+2 cocktail
Experimental: Definitive endoderm induction was performed in complete serum-free differentiation medium (cSFDM) consisting of 75% IMDM (Invitrogen 12440) and 25% Ham's Modified F12 medium (Cellgro 10-080-CV) supplemented with N2 and B27+RA (Invitrogen 17502-048 and 17504-44), 0.05% BSA (Invitrogen 15260-037), […] L-glutamine (Invitrogen 25030-081), 0.05 mg/ml ascorbic acid (Sigma A4544) and 4.5×10^-4M MTG (Sigma M6145) as previously described (Gouon-Evans et al., 2006, Longmire et al., 2012). Undifferentiated ESCs were trypsinized to form a single cell suspension and plated onto Petri dishes (500,000 cells/10 cm dish) resulting in the formation of embryoid bodies (EBs) over 60 hours. EBs were dissociated by trypsinization (0.05%, 1 min, 37° C.) and plated as single cells into cSFDM supplemented with 50 ng/ml Activin A (R&D systems 338-AC) for an additional 60 hours. For Anteriorization of endoderm, on day 5 (120 total hours of differentiation) EBs were plated onto p100 Petri dishes in Nog/SB media: cSFDM supplemented with 100 ng/ml mNoggin (R&D 1967-NG) and 10 μM SB431542 (Sigma S4317) as previously described (Longmire et al., 2012). For Nkx2-1+ endoderm induction, EBs were plated on gelatin coated 6 well plates at the equivalent density of 200,000 cells/well in Specification media: cSFDM supplemented as stated in the text with 100 ng/ml mWnt3a (R&D 1324-WN), 10 ng/ml hFGF10 (R&D 345-FG), 10 ng/ml mKGF (R&D 5028-KG), 10 ng/ml mBMP4 (R&D 5020-BP), 20 ng/ml hEGF (R&D 236-EG), 250 ng/ml mFGF2 (R&D 3139-FB) and 100 ng/ml Heparin Sodium Salt (Sigma […]2-1mCherry+ cells, or the populations otherwise indicated in the text were sorted using MoFlo or […] II SORP high speed cell sorters and replated onto gelatin-coated 24 well plates on day 12-14 at a density of 5×10^4 cells/well. Where indicated in the text, small molecule inhibitors were dissolved in DMSO according to manufacturer's instructions and added to the culture media from day 6 to 14 at the following working concentrations: Dorsomorphin 4 μM (Sigma P5499), PD98059 20 μM, SB203580 10 μM (both from Cell Signaling Technology, PHZ1164 and 5633), and LY294002 […] (Promega V1201).

Nkx2-1mCherry ESC line = assay: Maturation of ESC-derived Nkx2-1mCherry+ thyroid progenitors, marker mRNA by RT-PCR; type: cell-based, mouse; details: for thyroid specific gene expression: media used from D22 to D26, RT-PCR at Day 26
Experimental: Further differentiation and maturation of Nkx2-1+ sorted cells was performed in either 2D or 3D culture conditions, as indicated in the text. For 2D differentiation cells sorted on day 14 were replated and grown for 8 more days in cSFDM supplemented with 250 ng/ml mFGF2, 100 ng/ml hFGF10 and 100 ng/ml Heparin Sodium Salt. […] During the first 48 hours after sorting media was supplemented with 10 μM Y27632 (Sigma Y0503). From day 20-26 5 μg/ml ITS was included in the media. […] For cultures longer than 30 days, cells were splitted using Dispase (Corning 354235) on Day 30 and re-embedded in pure Matrigel, and fed with thyroid maturation media until the harvest day indicated in the text. RNA (for FIGS. 1 to 3 and 11c) was extracted from cells using the RNeasy kit (Qiagen 74104) following the manufacturer's protocol. 150 ng of RNA was reverse transcribed to cDNA using TaqMan reverse transcription reagents (Applied Biosystems N8080234) and the manufacturer's protocol. cDNA template was diluted 1:4, and 2 μl of the diluted template was used per 25 μl real time PCR reaction using Taqman Fast Universal PCR Master Mix (Applied Biosystems 4352042) and run in technical triplicates up to 40 cycles of PCR on the Applied Biosystems StepOne machine. Alternatively, 1 μl of the diluted template was used per 13 μl real time reaction on the Applied Biosystems 7900HT Real Time PCR System. Relative gene expression, normalized to 18S control, was calculated as fold change in 18S-normalized gene expression, over baseline, using the 2^(-ΔΔCT) method. Baseline, defined as fold change=1, was set to undifferentiated embryonic stem cell levels, or if undetected, a cycle number of 40 was assigned to allow fold change calculations. For FIGS. 5 and 11 (except FIG. 11c) total RNA was extracted from cultured cells using Stat-60 reagent (Tel-Test Cs-502). Then, 150 ng of total RNA was reverse transcribed using a SuperScript Vilo cDNA synthesis kit from Invitrogen. qPCR was performed in duplicate using the 800HT thermal cycler (Applied Biosystems). Relative mRNA levels were calculated using the standard curve method and normalized to peptidylprolyl isomerase A (cyclophilin). Cyclophilin expression was quantified with custom-made primers and probe (Forward primer: [NT]. ID. NO: 1), Reverse primer: [NT]. ID. NO: 2; Probe: [NT]. ID. NO: 3).

Cc1c[nH]c(/C=C2\C(=O)Nc3ccccc32)c1CCC(=O)O [SU5402]
induction of thyroid markers foxe1, nkx2-1, pax2 and hhex (Xenopus embryos): abrogated induction of all four thyroid markers in the vast majority of embryos

CC1(C)CC=C(C#Cc2ccccc2)c2cc(/C=C/c3ccc(C(=O)O)cc3)ccc21 [BMS493]
nkx2-1 induction in the developing thyroid primordium (Xenopus embryos): normal nkx2-1 induction

CC(C)Oc1ccc(-c2cnc3c(-c4ccnc5ccccc45)cnn3c2)cc1 [DMH-1]
induction of thyroid markers foxe1, nkx2-1, pax2 and hhex (Xenopus embryos): abrogated induction of all four thyroid markers in the vast majority of embryos | phosphorylation of SMAD1/5/8, pSmad1/5 content (pSmad1/5): substantial reduction in pSmad1/5 content; also recorded: marked reduction in phosphorylation of SMAD1/5/8 | induction of Nkx2-1 and Pax8, thyroid bud formation (mouse foregut explants): no thyroid bud was apparent; also recorded: blocked induction of both Nkx2-1 and Pax8

fibroblast growth factor 2 (basic) [FGF2]
efficiency of lineage specification, percent yield of GFP+/tdTomato+ cells [1]: significant decrease in the percent yield of GFP+/tdTomato+ cells | Nkx2-1+ cell specification by day 14 [2]: induced low numbers of Nkx2-1+ cells with little thyroid competence | Nkx2-1+ endodermal induction efficiency [2]: indispensible for efficient Nkx2-1+ endodermal induction

Nc1ncnc2c1ncn2[C@@H]1O[C@@H]2COP(=O)(O)O[C@H]2[C@H]1O [cAMP, cyclic adenosine monophosphate, reference compound]
thyroid specific gene expression (Nkx2-1mCherry ESC line): increase thyroid specific gene expression | maturation marker expression (Nkx2-1mCherry ESC line; withdrawal of the factor from the DCI+K cocktail, day 22-26): adversely affected maturation

Oc1nc(-c2ccc(C(F)(F)F)cc2)nc2c1CSCC2 [XAV939, reference compound]
nkx2-1 induction in the developing thyroid primordium (Xenopus embryos): normal nkx2-1 induction | efficiency of lineage specification of Nkx2-1GFP+; Pax8tdTomato trace+ cells [1]: no significant impact

thyroid stimulating hormone [TSH]
Nis, Tsh-r, and Tpo expression (Nkx2-1mCherry ESC line; TSH added after lineage specification, day 14-22): significant augmentation of Nis, Tsh-r, and Tpo expression | expression of lineage markers Nkx2-1 and Pax8 (Nkx2-1mCherry ESC line; TSH added day 14-22, data not shown): no significant change | efficiency of thyroid lineage specification (Nkx2-1mCherry ESC line; TSH added prior to lineage specification, day 9-12, data not shown): no detectable effect | Nis and Tsh-r expression (Nkx2-1mCherry ESC line; additional 3 days of culture maturation in the presence of TSH (Day 25 vs Day 22)): further augmentation of Nis and Tsh-r expression | thyroid specific gene expression (Nkx2-1mCherry ESC line): increase thyroid specific gene expression | thyroid maturation marker Nis (Nkx2-1mCherry ESC line; substitution of TSH for cAMP in the DCI+K media, day 22-26): most robust augmentation of the thyroid maturation marker, Nis

B1: Dkk1: Wnt inhibitor (protein, UniProt O94907 32-266, looked up)
Dickkopf-related protein 1: TLNSVLNSNAIKNLPPPLGGAAGHPGSAVSAAPGILYPGGNKYQTIDNYQPYPCAEDEECGTDEYCASPTRGGDAGVQICLACRKRRKRCMRHAMCCPGNYCKNGICVSSDQNHFRGEIEETITESFGNDHSTLDGYSRRTTLSSKMYHTKGQEGSVCLRSSDCASGLCCARHFWSKICKPVLKEGQVCTKHRRKGSHGLEIFQRCYCGEGLSCRIQKDHHQASNSSRLHTCQRH
efficiency of lineage specification of Nkx2-1GFP+; Pax8tdTomato trace+ cells [1]: no significant impact

B2: bone morphogenetic protein 4 (protein, UniProt P12644 293-408, looked up)
Bone morphogenetic protein 4: SPKHHSQRARKKNKNCRRHSLYVDFSDVGWNDWIVAPPGYQAFYCHGDCPFPLADHLNSTNHAIVQTLVNSVNSSIPKACCVPTELSAISMLYLDEYDKVVLKNYQEMVVEGCGCR
notes: growth factor in specification media
efficiency of lineage specification, percent yield of GFP+/tdTomato+ cells [1]: significant decrease in the percent yield of GFP+/tdTomato+ cells | Nkx2-1+ cell specification by day 14 [2]: induced low numbers of Nkx2-1+ cells with little thyroid competence | Nkx2-1+ endodermal induction efficiency [2]: indispensible for efficient Nkx2-1+ endodermal induction
